In data set [1] the test system is vagal afferent nerves (TRPV1) in the stomach. Nature of the data set: Nausea and vomiting induced by intravenous vasopressin infusion, behavioral emetic score. Type of data set: in vivo, dog. As to conditions: dogs, vasopressin 0.5 U/Kg iv over 20 minutes, one week after 250 ml of a 100 nM solution sprayed endoscopically; baseline 29.0±6.2; p=0.05. The protocol: (§1) Nausea and vomiting was induced using either balloon distention or intra-venous infusion of vasopressin (0.5 U/Kg infused over 20 minutes). Untreated represents control or baseline mean score of the emetic response was 26.3±4.0 and 29.0±6.2 for balloon distention and vasopressin stimuli respectively. Following, Resiniferatoxin infusion (250 ml of a 100 nM solution): the mean score with balloon distention was 11.7±4.2 (p=0.01) while the mean score with vasopressin was 16.3±5 (p=0.05).
(§2) Four dogs with surgically created jejunocutaneous fistulae 20 cm distal to the pylorus were used in this study. Nausea and vomiting were induced using two different stimuli, both of which are vagally dependent, at least in part: (1) Balloon inflation in the jejunum (2) Intravenous vasopressin infusion (0.5 U/Kg infused over 20 minutes). Nausea was assessed using a previously validated behavioral scoring system in addition to counting actual episodes of vomiting. After baseline observations, resiniferatoxin (250 ml of a 100 nM solution) was administered endoscopically using a spray catheter to coat the mucosal lining of the stomach under general anesthesia into the stomach. One week later, the response to balloon distention and vasopressin infusion was recorded again.

The nature of data set [2]: General observation of dogs after endoscopic resiniferatoxin spray. Format: in vivo, dog. Particulars: after endoscopic gastric spray of 250 ml of a 100 nM solution. The protocol: as §2
The next data set deals with dogs. Particulars: subcutaneous; cited from earlier work.
The test system of a further data set is Suncus murinus. As to conditions: subcutaneous; cited from earlier work.
Data set [3] deals with ferrets. Particulars: subcutaneous; cited from earlier work.
The subject of data set [4] is ferrets. Particulars: subcutaneous; cited from earlier work. This is another data set of the same source.
The test system of data set [5] is vagal afferent nerves (TRPV1) in the stomach. Nature of the data set: Nausea and vomiting induced by balloon inflation in the jejunum, behavioral emetic score. Type of data set: in vivo, dog. Particulars: dogs, one week after 250 ml of a 100 nM solution sprayed endoscopically onto gastric mucosa; baseline 26.3±4.0; p=0.01. The protocol:
as §1, §2

Consider `C=C(C)[C@]12C[C@@H](C)[C@@]34O[C@](Cc5ccccc5)(O[C@@H]1[C@@H]3C=C(COC(=O)Cc1ccc(O)c(OC)c1)C[C@]1(O)C(=O)C(C)=C[C@@H]41)O2` [Resiniferatoxin], for which the “mean score of the emetic response with vasopressin” value in data set [1] worked out at 16.3±5. Further, in data set [2], the body weight change entry was “minor weight loss”. Further, the “general health of dogs” value in data set [2] is on record as “appeared healthy”. The “effect on acute and delayed cisplatin and apomorphine induced emesis” value in the data set with dogs and in the data set on ferrets [3] was “inhibited” in each case. Also, the “emetic / anti-emetic properties” value in the data set on Suncus murinus is given as “initial emetic followed by anti-emetic properties”. In addition, the “effect on copper sulphate, whole body radiation and Loperamide induced emetic response” value in the data set with ferrets [4] was “blocked”. For the same compound, the “mean score of the emetic response with balloon distention” value in data set [5] is 11.7±4.2.
